Measured values from ChEMBL document CHEMBL1148883, “Hit-to-lead studies on benzimidazole inhibitors of ITK: discovery of a novel class of kinase inhibitors” (Bioorg Med Chem Lett, 2007).

Assays:
[1] = biological target: T1, Tyrosine-protein kinase ITK/TSK (Homo sapiens, UniProt Q08881); assay: Inhibition of human ITK by DELFIA assay
T1 sequence (Q08881 whole entry): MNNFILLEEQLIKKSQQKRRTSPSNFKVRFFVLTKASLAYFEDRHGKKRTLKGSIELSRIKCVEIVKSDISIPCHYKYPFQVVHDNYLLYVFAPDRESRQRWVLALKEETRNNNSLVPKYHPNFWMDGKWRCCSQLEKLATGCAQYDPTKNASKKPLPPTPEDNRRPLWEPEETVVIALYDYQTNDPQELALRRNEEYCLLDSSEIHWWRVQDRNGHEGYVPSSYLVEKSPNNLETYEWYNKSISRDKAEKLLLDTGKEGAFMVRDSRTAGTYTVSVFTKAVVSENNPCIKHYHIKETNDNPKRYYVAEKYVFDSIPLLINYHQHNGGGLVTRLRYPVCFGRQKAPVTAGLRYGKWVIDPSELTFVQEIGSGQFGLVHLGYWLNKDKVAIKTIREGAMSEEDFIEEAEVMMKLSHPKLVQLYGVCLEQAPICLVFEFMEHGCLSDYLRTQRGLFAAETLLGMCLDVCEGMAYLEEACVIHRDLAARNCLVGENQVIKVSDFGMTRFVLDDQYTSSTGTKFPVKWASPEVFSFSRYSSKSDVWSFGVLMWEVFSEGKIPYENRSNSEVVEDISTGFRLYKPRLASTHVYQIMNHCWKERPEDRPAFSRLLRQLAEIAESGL

Ephrin type-A receptor 2 = Ephrin type-A receptor 2 (Homo sapiens, UniProt P29317); assay: Inhibition of ECK
[2] = biological target: Cyclin-dependent kinase 5 (Homo sapiens) (UniProt Q00535); assay: Inhibition of CDK5 at 10 uM
[3] = biological target: Tyrosine-protein kinase JAK3 (Homo sapiens) (UniProt P52333); assay: Inhibition of JAK3 at 10 uM
[4] = biological target: Cyclin-dependent kinase 2 (Homo sapiens) (UniProt P24941); assay: Inhibition of CDK2 at 10 uM
[5] = biological target: Tyrosine-protein kinase BTK (Homo sapiens, UniProt Q06187); assay: Inhibition of BTK
[6] = biological target: Tyrosine-protein kinase Lyn (Homo sapiens, UniProt P07948); assay: Inhibition of LYN
[7] = biological target: Tyrosine-protein kinase TXK (Homo sapiens, UniProt P42681); assay: Inhibition of TXK
[8] = biological target: Protein kinase C beta type (Homo sapiens) (UniProt P05771); assay: Inhibition of PKCbeta at 10 uM
[9] = biological target: Fibroblast growth factor receptor 3 (Homo sapiens, UniProt P22607); assay: Inhibition of FGFR3
[10] = biological target: Epidermal growth factor receptor (Homo sapiens, UniProt P00533); assay: Inhibition of EGFR
[11] = biological target: T1, Tyrosine-protein kinase ITK/TSK; assay: Inhibition of human ITK in presence of 500 uM ATP
[12] = biological target: Rho-associated protein kinase 2 (Homo sapiens) (UniProt O75116); assay: Inhibition of ROCK2 at 10 uM
[13] = Inhibition of IRK; design: species or system Homo sapiens
[14] = biological target: Tyrosine-protein kinase SYK (Homo sapiens) (UniProt P43405); assay: Inhibition of SYK at 10 uM
[15] = biological target: Serine/threonine-protein kinase Chk1 (Homo sapiens) (UniProt O14757); assay: Inhibition of CHK1 at 10 uM
[16] = biological target: MAP kinase-activated protein kinase 2 (Homo sapiens) (UniProt P49137); assay: Inhibition of MAPKAPK2 at 10 uM
[17] = biological target: Platelet-derived growth factor receptor (Homo sapiens) (UniProt P09619+P16234); assay: Inhibition of PDGFR at 10 uM; format: protein-complex assay
[18] = biological target: T1, Tyrosine-protein kinase ITK/TSK; assay: Inhibition of human ITK in presence of 20 uM ATP
[19] = biological target: T1, Tyrosine-protein kinase ITK/TSK; assay: Effect on human ITK in DT40 cells assessed as […] of calcium influx by FLIPR assay; format: cell-based
[20] = biological target: Vascular endothelial growth factor receptor 1 (Homo sapiens, UniProt P17948); assay: Inhibition of VEGFR1
[21] = biological target: Cytoplasmic tyrosine-protein kinase BMX (Homo sapiens, UniProt P51813); assay: Inhibition of BMX
[22] = biological target: Dual specificity mitogen-activated protein kinase kinase 1 (Homo sapiens) (UniProt Q02750); assay: Inhibition of MKK1 at 10 uM
[23] = biological target: T1, Tyrosine-protein kinase ITK/TSK; assay: Inhibition of human ITK in presence of 100 uM ATP
[24] = biological target: T1, Tyrosine-protein kinase ITK/TSK; assay: Inhibition of human ITK in presence of 3 uM ATP
[25] = biological target: Hepatocyte growth factor receptor (Homo sapiens, UniProt P08581); assay: Inhibition of HGFR
[26] = biological target: Tyrosine-protein kinase Tec (Homo sapiens, UniProt P42680); assay: Inhibition of TEC
Tyrosine-protein kinase Tec, sequence (P42680 whole entry): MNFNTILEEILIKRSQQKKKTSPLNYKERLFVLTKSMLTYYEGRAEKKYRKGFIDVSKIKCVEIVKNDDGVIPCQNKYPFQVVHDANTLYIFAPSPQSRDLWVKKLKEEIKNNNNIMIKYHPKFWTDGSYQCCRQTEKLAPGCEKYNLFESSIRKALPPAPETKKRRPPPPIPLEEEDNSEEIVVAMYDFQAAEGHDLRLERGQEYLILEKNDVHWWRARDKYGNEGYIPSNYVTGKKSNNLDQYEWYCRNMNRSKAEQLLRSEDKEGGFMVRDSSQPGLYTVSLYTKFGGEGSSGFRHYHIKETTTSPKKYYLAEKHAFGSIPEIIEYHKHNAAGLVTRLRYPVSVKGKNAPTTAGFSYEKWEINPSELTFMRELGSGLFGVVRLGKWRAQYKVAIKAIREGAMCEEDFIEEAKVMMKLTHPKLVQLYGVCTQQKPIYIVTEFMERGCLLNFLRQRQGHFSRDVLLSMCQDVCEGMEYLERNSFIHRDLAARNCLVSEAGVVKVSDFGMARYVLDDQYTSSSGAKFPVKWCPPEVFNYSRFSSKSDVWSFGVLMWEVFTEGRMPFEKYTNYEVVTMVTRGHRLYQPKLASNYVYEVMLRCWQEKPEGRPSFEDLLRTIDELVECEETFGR

Vascular endothelial growth factor receptor 1, sequence (P17948 whole entry): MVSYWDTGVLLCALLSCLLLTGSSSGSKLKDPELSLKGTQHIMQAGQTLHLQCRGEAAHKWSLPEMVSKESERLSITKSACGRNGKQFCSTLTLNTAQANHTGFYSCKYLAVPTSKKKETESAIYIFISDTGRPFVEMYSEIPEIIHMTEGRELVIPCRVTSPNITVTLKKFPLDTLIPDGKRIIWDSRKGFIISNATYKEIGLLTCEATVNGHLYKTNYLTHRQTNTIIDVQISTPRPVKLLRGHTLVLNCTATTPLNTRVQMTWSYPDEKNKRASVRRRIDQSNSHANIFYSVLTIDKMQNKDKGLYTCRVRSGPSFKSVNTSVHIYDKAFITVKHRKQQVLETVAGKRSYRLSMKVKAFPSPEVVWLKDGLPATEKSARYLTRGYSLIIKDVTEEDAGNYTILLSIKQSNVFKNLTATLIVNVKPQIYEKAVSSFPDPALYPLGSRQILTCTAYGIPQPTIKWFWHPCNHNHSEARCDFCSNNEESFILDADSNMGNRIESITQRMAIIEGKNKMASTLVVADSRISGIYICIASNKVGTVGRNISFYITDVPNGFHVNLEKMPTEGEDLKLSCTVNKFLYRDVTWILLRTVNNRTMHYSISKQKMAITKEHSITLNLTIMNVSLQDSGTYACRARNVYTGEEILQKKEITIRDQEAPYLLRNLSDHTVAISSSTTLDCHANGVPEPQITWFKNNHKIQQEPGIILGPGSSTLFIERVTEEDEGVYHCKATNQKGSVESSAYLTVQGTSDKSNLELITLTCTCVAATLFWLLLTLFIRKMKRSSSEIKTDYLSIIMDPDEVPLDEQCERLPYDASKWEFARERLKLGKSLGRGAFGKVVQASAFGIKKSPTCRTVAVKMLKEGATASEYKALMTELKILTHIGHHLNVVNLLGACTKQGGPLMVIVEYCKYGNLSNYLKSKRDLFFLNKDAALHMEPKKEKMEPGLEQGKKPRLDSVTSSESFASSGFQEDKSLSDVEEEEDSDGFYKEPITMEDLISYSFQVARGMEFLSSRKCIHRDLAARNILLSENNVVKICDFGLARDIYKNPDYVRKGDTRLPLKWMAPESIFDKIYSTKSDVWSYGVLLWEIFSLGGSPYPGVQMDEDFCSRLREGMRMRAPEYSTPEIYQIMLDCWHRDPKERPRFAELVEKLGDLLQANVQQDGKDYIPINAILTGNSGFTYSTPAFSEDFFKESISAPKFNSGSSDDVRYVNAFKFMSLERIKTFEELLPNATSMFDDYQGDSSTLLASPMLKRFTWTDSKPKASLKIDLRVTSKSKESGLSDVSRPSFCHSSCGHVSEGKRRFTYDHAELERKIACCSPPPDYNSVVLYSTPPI
Hepatocyte growth factor receptor, sequence (P08581 whole entry): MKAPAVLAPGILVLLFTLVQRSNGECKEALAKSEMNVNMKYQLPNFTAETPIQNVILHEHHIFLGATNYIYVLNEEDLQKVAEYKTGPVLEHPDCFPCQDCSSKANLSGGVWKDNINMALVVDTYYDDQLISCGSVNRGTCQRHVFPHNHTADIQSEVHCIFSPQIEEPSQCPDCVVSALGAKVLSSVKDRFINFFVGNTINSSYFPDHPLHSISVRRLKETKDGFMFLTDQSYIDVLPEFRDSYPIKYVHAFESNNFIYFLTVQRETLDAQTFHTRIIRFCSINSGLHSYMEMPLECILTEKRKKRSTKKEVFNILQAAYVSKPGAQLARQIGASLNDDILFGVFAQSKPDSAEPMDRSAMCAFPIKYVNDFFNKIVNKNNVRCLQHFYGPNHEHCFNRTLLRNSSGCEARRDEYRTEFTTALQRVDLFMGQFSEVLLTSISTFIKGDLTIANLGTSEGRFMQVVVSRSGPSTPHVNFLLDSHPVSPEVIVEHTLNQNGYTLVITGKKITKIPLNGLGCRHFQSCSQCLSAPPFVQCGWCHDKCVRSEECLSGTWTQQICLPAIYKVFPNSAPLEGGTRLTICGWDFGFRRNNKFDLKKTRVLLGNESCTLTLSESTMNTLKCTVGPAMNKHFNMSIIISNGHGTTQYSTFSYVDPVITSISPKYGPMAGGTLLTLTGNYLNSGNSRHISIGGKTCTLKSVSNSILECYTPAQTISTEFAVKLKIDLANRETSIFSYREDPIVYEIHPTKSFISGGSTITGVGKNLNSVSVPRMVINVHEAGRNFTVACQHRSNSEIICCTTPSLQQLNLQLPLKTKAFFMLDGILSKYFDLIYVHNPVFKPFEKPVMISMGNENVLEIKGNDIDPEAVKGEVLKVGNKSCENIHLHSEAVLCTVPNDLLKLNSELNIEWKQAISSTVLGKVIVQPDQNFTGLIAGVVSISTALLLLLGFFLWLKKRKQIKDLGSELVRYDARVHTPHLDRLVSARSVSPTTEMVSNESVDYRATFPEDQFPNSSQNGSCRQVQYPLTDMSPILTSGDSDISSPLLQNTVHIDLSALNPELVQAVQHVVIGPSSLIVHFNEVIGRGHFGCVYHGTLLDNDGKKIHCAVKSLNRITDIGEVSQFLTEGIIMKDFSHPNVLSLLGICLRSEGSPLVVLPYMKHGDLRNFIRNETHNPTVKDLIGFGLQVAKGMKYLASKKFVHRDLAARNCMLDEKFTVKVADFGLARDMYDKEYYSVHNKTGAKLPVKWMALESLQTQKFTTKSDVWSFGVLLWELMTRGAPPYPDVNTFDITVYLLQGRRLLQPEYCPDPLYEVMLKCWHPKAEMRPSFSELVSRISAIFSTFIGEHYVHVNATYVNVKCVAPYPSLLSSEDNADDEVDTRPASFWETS
Fibroblast growth factor receptor 3, sequence (P22607 whole entry): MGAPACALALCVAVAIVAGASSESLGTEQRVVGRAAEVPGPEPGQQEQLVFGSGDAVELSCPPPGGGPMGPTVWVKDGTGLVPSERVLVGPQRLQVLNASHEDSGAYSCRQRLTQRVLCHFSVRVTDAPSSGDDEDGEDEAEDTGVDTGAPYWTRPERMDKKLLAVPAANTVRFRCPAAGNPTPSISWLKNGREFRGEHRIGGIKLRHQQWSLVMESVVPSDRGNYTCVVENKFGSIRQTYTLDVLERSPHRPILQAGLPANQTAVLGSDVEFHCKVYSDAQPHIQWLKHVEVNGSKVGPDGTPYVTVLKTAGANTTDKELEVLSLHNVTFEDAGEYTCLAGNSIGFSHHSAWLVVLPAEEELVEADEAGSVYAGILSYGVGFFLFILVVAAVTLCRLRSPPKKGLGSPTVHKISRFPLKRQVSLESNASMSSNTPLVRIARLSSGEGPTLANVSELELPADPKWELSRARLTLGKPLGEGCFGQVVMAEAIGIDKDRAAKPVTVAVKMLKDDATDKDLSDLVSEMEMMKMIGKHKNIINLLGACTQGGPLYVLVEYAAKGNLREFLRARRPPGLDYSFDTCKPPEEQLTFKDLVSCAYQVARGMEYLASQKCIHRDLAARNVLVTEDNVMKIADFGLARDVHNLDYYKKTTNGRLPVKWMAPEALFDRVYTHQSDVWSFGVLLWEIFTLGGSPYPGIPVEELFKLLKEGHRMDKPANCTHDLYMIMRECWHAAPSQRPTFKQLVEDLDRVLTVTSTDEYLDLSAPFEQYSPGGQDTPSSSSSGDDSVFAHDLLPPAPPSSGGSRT
Tyrosine-protein kinase Lyn, sequence (P07948 whole entry): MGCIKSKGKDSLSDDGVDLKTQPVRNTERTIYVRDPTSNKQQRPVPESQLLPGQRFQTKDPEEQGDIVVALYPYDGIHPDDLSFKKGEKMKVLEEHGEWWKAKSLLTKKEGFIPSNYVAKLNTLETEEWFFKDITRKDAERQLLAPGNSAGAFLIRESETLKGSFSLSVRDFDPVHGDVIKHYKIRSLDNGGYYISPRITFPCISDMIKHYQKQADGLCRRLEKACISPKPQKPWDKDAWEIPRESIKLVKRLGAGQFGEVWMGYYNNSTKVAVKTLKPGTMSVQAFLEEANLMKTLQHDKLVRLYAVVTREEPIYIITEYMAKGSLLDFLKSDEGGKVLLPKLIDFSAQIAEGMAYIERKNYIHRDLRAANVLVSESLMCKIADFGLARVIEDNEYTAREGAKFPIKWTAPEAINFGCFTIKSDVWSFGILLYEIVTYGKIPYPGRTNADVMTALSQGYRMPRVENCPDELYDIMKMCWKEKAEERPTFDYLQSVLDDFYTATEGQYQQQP
Dual specificity mitogen-activated protein kinase kinase 1 (Homo sapiens), sequence (Q02750 whole entry): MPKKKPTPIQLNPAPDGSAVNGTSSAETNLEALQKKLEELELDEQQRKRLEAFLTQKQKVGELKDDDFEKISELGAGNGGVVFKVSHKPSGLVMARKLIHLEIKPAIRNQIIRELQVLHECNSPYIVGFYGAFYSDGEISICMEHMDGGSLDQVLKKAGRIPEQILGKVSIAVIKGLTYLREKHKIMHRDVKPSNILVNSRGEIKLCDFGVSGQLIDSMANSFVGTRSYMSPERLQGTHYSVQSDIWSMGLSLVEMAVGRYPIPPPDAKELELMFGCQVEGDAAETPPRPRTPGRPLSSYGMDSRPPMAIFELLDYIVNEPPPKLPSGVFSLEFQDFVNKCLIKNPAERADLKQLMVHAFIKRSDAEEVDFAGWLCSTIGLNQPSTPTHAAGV

For `NC(=O)CCn1c(NC(=O)c2ccccc2)nc2cc(C(=O)NC3CCCCC3)ccc21`, which IC50 [1] is on record?
The IC50 was over 20 µM.

For `NC(=O)CCn1c(NC(=O)c2ccccc2)nc2cc(C(=O)N(C3CCCCC3)C3CCCCC3)ccc21`, which IC50 [1] is on record?
Its IC50 is over 20 µM.

For `NC(=O)CCn1c(NC(=O)c2ccsc2)nc2cc(C(=O)NC3CCCCC3)ccc21`, which IC50 [1] is on record?
Its IC50 is over 20 µM.

For `CN(C(=O)C1CCCCC1)c1ccc2c(c1)nc(NC(=O)c1cccs1)n2CCCN`, which IC50 (Ephrin type-A receptor 2) is on record?
Its IC50 is over 10 µM.

What about the inhibition [2] of the same compound?
Its inhibition is -4%.

What about the inhibition [3] of the same compound?
The inhibition was -7%.

And the IC50 [1]?
Its IC50 is 0.025 µM.

What about the inhibition [4] of the same compound?
Its inhibition is 7%.

What about the IC50 [5] of the same compound?
Its IC50 is over 22 µM.

And the IC50 [6]?
The IC50 was over 10 µM.

What about the IC50 [7] of the same compound?
Its IC50 is 1.4 µM.

What about the inhibition [8] of the same compound?
The inhibition was 21%.

And the IC50 [9]?
Its IC50 is over 6 µM.

And the IC50 [10]?
The IC50 was over 6 µM.

What about the IC50 [11] of the same compound?
The IC50 was 1.1 µM.

What about the inhibition [12] of the same compound?
The inhibition was -1%.

And the IC50 [13]?
Its IC50 is 0.2 µM.

What about the inhibition [14] of the same compound?
Its inhibition is 6%.

And the inhibition [15]?
The inhibition was 8%.

And the inhibition [16]?
The inhibition was 1%.

And the inhibition [17]?
The inhibition was 10%.

What about the IC50 [18] of the same compound?
Its IC50 is 0.08 µM.

What about the IC50 [19] of the same compound?
The IC50 was 2.4 µM.

And the IC50 [20]?
The IC50 was over 10 µM.

What about the IC50 [21] of the same compound?
The IC50 was over 22 µM.

What about the inhibition [22] of the same compound?
The inhibition was -2%.

What about the IC50 [23] of the same compound?
Its IC50 is 0.24 µM.

And the IC50 [24]?
The IC50 was 0.025 µM.

What about the IC50 [25] of the same compound?
Its IC50 is over 10 µM.

And the IC50 [26]?
Its IC50 is 22 µM.

For `NCCCn1c(NC(=O)c2cccs2)nc2cc(C(=O)OC3CCCCC3)ccc21`, which IC50 [1] is on record?
Its IC50 is over 20 µM.
